Results taken from patent US20230393122A1 (priority 2022, published 2023).
Where two headings read alike, the source gives them in different places.

Columns and labels:
Assay type in all cases: cell-based
[1] = tested on: SARS-CoV-2 Omicron variant; experiment: Viral load reduction assay in naïve-eSTB cells; settings: compared with EPSC-eSTBs
[2] = tested on: SARS-CoV-2 Delta variant; experiment: Viral load reduction assay in EPSC-derived eSTB cells (qRT-PCR of supernatant viral copies); settings: for IC50: read-out: IC50 for Delta variant in eSTBs
[3] = tested on: SARS-CoV-2 Omicron variant; experiment: as above; settings: for IC50: read-out: IC50 for Omicron variant in eSTBs
[4] = tested on: SARS-CoV-2 Delta variant; experiment: Viral load reduction assay in naïve-eSTB cells; settings: compared with EPSC-eSTBs
[5] = Severe acute respiratory syndrome coronavirus 2, 48 h

CC(C)C[C@H](NC(=O)OCc1ccccc1)C(=O)N[C@@H](C[C@@H]1CCNC1=O)C(O)S(=O)(=O)[O-].[Na+] (some centres unmarked) [GC376]
IC50 against Omicron variant in naïve-eSTBs [1]: similarly low
Viral copy in the supernatant, Delta (FIG. 17B) ([2]; EPSC-derived eSTB cells): dose-dependent inhibition
Viral copy in the supernatant, Omicron (FIG. 17B) ([3]; EPSC-derived eSTB cells): dose-dependent inhibition
IC50 against Delta variant in naïve-eSTBs [4]: similarly low

CCC(CC)COC(=O)[C@H](C)N[P@](=O)(OC[C@H]1O[C@@](C#N)(c2ccc3c(N)ncnn23)[C@H](O)[C@@H]1O)Oc1ccccc1 [remdesivir]
IC50 [2, 5]: 5.5 ± 1.2 nM
IC50 [3, 5]: 4.1 ± 1.5 nM

CC(C)C[C@H](NC(=O)OCc1ccccc1)C(=O)N[C@@H](CC1CCNC1=O)C(O)S(=O)(=O)O (some centres unmarked) [GC376]
IC50 [2]: 25.5 ± 3.2 nM
IC50 [3]: 31.4 ± 4.1 nM
